Patent US9815846B2 (Merck Sharp & Dohme Corp., priority 2014, dated 2017)

molecular target: human TrkA receptor (Homo sapiens (Human), UniProt P04629); test: DiscoverX PathHunter TrkA functional assay (NGF-stimulated U2OS cells); type: cell-based; details: U2OS cells expressing human TrkA-PK, Shc1-EA and p75NTR; compound 1 h, then NGF at ~80% of maximal response for 3 h; luminescence
Sequence (P04629 33-796): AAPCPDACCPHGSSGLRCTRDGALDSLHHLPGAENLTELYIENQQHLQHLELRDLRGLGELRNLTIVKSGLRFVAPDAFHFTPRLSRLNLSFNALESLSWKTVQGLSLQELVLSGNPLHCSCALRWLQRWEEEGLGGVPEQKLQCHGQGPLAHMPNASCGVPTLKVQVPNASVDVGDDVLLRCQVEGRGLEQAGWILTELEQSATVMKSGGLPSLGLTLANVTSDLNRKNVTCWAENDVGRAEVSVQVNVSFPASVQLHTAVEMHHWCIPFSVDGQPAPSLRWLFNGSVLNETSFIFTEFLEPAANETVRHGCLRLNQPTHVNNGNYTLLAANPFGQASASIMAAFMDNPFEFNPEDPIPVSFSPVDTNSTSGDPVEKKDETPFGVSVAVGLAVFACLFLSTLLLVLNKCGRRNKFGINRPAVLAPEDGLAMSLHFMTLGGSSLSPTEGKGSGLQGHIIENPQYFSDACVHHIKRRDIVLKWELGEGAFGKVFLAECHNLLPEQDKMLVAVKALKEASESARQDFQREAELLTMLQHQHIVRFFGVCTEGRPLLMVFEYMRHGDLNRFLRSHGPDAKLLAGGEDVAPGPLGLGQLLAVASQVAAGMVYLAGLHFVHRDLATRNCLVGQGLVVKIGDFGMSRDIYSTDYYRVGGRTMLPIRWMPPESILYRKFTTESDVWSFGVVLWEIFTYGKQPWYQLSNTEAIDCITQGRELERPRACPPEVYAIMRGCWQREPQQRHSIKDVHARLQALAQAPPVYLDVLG

| IC50 [nM] | SMILES |
| --- | --- |
| 8.8 | NC(=O)Cc1ccc(NC(=O)c2cc(-c3ccccn3)c(C(F)(F)F)cc2F)c(-c2ccccc2)n1 [Example 124, N-(6-(2-amino-2-oxoethyl)-2-phenylpyridin-3-yl)-2-fluoro-5-(pyridin-2-yl)-4-(trifluoromethyl)benzamide] |
| 14 | NC(=O)Cc1ncc(NC(=O)c2cc(-c3ncccn3)c(C(F)(F)F)cc2F)c(-c2ccccc2)n1 [Example 125, N-(2-(2-amino-2-oxoethyl)-4-phenylpyrimidin-5-yl)-2-fluoro-5-(pyrimidin-2-yl)-4-(trifluoromethyl)benzamide] |
| 17 | NC(=O)Cc1ncc(NC(=O)c2cc(-c3cc[nH]n3)c(C(F)(F)F)cc2F)c(-c2ccccc2)n1 [Example 126, N-(2-(2-amino-2-oxoethyl)-4-phenylpyrimidin-5-yl)-2-fluoro-5-(1H-pyrazol-3-yl)-4-(trifluoromethyl)benzamide] |
| 6 | NC(=O)Cc1cc(-c2ccccc2)c(NC(=O)c2cc(-c3ccccn3)c(C(F)(F)F)cc2F)cn1 [Example 127, N-(6-(2-amino-2-oxoethyl)-4-phenylpyridin-3-yl)-2-fluoro-5-(pyridin-2-yl)-4-(trifluoromethyl)benzamide] |
| 0.54 | Cn1ccc(-c2cc(C(=O)Nc3cnc(CCC(N)=O)nc3-c3ccccc3)c(F)cc2C(F)(F)F)n1 [Example 128, N-(2-(3-Amino-3-oxopropyl)-4-phenylpyrimidin-5-yl)-2-fluoro-5-(1-methyl-1H-pyrazol-3-yl)-4-(trifluoromethyl)benzamide] |
| 0.25 | Cn1ccc(-c2cc(C(=O)Nc3cnc(Cc4nnc[nH]4)nc3-c3ccccc3)c(F)cc2C(F)(F)F)n1 [Example 129, N-(2-((4H-1,2,4-Triazol-3-yl)methyl)-4-phenylpyrimidin-5-yl)-2-fluoro-5-(1-methyl-1H-pyrazol-3-yl)-4-(trifluoromethyl)benzamide] |
| 4.6 | Cn1ccc(-c2cc(C(=O)Nc3cnc(C(N)C(N)=O)nc3-c3ccccc3)c(F)cc2C(F)(F)F)n1 (stereo not drawn) [Example 130, N-(2-(1,2-Diamino-2-oxoethyl)-4-phenylpyrimidin-5-yl)-2-fluoro-5-(1-methyl-1H-pyrazol-3-yl)-4-(trifluoromethyl)benzamide] |
| 4.4 | Cn1ccc(-c2cc(C(=O)Nc3cnc(C4NC(=O)NC4=O)nc3-c3ccccc3)c(F)cc2C(F)(F)F)n1 (stereo not drawn) [Example 131, N-(2-(2,5-Dioxoimidazolidin-4-yl)-4-phenylpyrimidin-5-yl)-2-fluoro-5-(1-methyl-1H-pyrazol-3-yl)-4-(trifluoromethyl)benzamide] |
| 16 | CC(=O)NCc1cccc(-c2nc(C)ncc2NC(=O)c2cc(-c3ccn(C)n3)c(C(F)(F)F)cc2F)c1 [Example 132, N-(4-(3-(Acetamidomethyl)phenyl)-2-methylpyrimidin-5-yl)-2-fluoro-5-(1-methyl-1H-pyrazol-3-yl)-4-(trifluoromethyl)benzamide] |
| 4.6 | CC(=O)Nc1cccc(-c2nc(C)ncc2NC(=O)c2cc(-c3ccn(C)n3)c(C(F)(F)F)cc2F)c1 [Example 133, N-(4-(3-acetamidophenyl)-2-methylpyrimidin-5-yl)-2-fluoro-5-(1-methyl-1H-pyrazol-3-yl)-4-(trifluoromethyl)benzamide] |
| 7 | Cc1ncc(NC(=O)c2cc(-c3ccn(C)n3)c(C(F)(F)F)cc2F)c(-c2ccccc2CCN)n1 [Example 134, N-(4-(2-(2-aminoethyl)phenyl)-2-methylpyrimidin-5-yl)-2-fluoro-5-(1-methyl-1H-pyrazol-3-yl)-4-(trifluoromethyl)benzamide] |
| 0.57 | Cc1ncc(NC(=O)c2cc(-c3ccn(C)n3)c(C(F)(F)F)cc2F)c(-c2ccccc2CCN(C)C)n1 [Example 135, N-(4-(2-(2-(Dimethylamino)ethyl)phenyl)-2-methylpyrimidin-5-yl)-2-fluoro-5-(1-methyl-1H-pyrazol-3-yl)-4-(trifluoromethyl)benzamide] |
| 4.4 | Cc1ncc(NC(=O)c2cc(-c3ccn(C)n3)c(C(F)(F)F)cc2F)c(-c2ccccc2CO)n1 [Example 136, 2-Fluoro-N-(4-(2-(hydroxymethyl)phenyl)-2-methylpyrimidin-5-yl)-5-(1-methyl-1H-pyrazol-3-yl)-4-(trifluoromethyl)benzamide] |
| 2.9 | O=C(Nc1cc(-c2csc(C3CC3)n2)cnc1N1CCC[C@@H]1CO)c1cc(-c2ncccn2)c(C(F)(F)F)cc1F [Example 137, (R)—N-(5-(2-Cyclopropylthiazol-4-yl)-2-(2-(hydroxymethyl)pyrrolidin-1-yl)pyridin-3-yl)-2-fluoro-5-(pyrimidin-2-yl)-4-(trifluoromethyl)benzamide] |
| 27 | Cn1ccc(-c2cnc(N3CCC[C@@H]3CO)c(NC(=O)c3cc(-c4ncccn4)c(C(F)(F)F)cc3F)c2)n1 [Example 138, (R)-2-fluoro-N-(2-(2-(hydroxymethyl)pyrrolidin-1-yl)-5-(1-methyl-1H-pyrazol-3-yl)pyridin-3-yl)-5-(pyrimidin-2-yl)-4-(trifluoromethyl)benzamide] |
| 1.4 | O=C(Nc1cc2c(nc1-c1ccccc1)CCNC2=O)c1cc(-c2ncccn2)c(C(F)(F)F)cc1F [Example 139, 2-Fluoro-N-(5-oxo-2-phenyl-5,6,7,8-tetrahydro-1,6-naphthyridin-3-yl)-5-(pyrimidin-2-yl)-4-(trifluoromethyl)benzamide] |
| 1.8 | Cn1ccc(-c2cc(C(=O)Nc3cc4c(nc3-c3ccccc3)CCN(CC(N)=O)C4)ccc2C(F)(F)F)n1 [Example 140, N-(6-(2-Amino-2-oxoethyl)-2-phenyl-5,6,7,8-tetrahydro-1,6-naphthyridin-3-yl)-3-(1-methyl-1H-pyrazol-3-yl)-4-(trifluoromethyl)benzamide] |
| 14 | Cn1ccc(-c2cc(C(=O)Nc3cc4c(nc3-c3ccccn3)CCNC4=O)c(F)cc2C(F)(F)F)n1 [Example 141, 2-Fluoro-5-(1-methyl-1H-pyrazol-3-yl)-N-(5-oxo-2-(pyridin-2-yl)-5,6,7,8-tetrahydro-1,6-naphthyridin-3-yl)-4-(trifluoromethyl)benzamide] |
| 4.7 | Cn1ccc(-c2cc(C(=O)Nc3cc4c(nc3-c3ccccc3)CNC(=O)C4)ccc2C(F)(F)F)n1 [Example 142, 3-(1-Methyl-1H-pyrazol-3-yl)-N-(6-oxo-2-phenyl-5,6,7,8-tetrahydro-1,7-naphthyridin-3-yl)-4-(trifluoromethyl)benzamide] |
| 19 | Cn1ccc(-c2cc(C(=O)Nc3cnc4c(c3-c3ccccc3)CCN(C(=O)CO)C4)ccc2C(F)(F)F)n1 [Example 143, N-(7-(2-Hydroxyacetyl)-4-phenyl-5,6,7,8-tetrahydro-1,7-naphthyridin-3-yl)-3-(1-methyl-1H-pyrazol-3-yl)-4-(trifluoromethyl)benzamide] |
| 0.26 | Cn1ccc(-c2cc(C(=O)Nc3cc4c(nc3-c3ccccc3)CN(C(N)=O)CC4)c(F)cc2C(F)(F)F)n1 [Example 144, 3-(2-Fluoro-5-(1-methyl-1H-pyrazol-3-yl)-4-(trifluoromethyl)benzamido)-2-phenyl-5,6-dihydro-1,7-naphthyridine-7(8H)-carboxamide] |
| 2.9 | Cn1ccc(-c2cc(C(=O)Nc3cc4c(nc3-c3ccccc3)CCNC4)c(F)cc2C(F)(F)F)n1 [Example 145, 2-fluoro-5-(1-methyl-1H-pyrazol-3-yl)-N-(2-phenyl-5,6,7,8-tetrahydro-1,6-naphthyridin-3-yl)-4-(trifluoromethyl)benzamide] |
| 13 | O=C(Nc1cc2c(nc1-c1ccccc1)CCNC2)c1cc(-c2ccccn2)c(C(F)(F)F)cc1F [Example 146, 2-fluoro-N-(2-phenyl-5,6,7,8-tetrahydro-1,6-naphthyridin-3-yl)-5-(pyridin-2-yl)-4-(trifluoromethyl)benzamide] |
| 14 | CC(=O)N1CCc2nc(-c3ccccc3)c(NC(=O)c3ccc(C(F)(F)F)c(-c4ncccn4)c3)cc2C1 [Example 147, N-(6-acetyl-2-phenyl-5,6,7,8-tetrahydro-1,6-naphthyridin-3-yl)-3-(pyrimidin-2-yl)-4-(trifluoromethyl)benzamide] |
| 3.3 | CC(=O)N1CCc2nc(-c3ccccc3)c(NC(=O)c3cc(-c4ncccn4)c(C(F)(F)F)cc3F)cc2C1 [Example 148, N-(6-acetyl-2-phenyl-5,6,7,8-tetrahydro-1,6-naphthyridin-3-yl)-2-fluoro-5-(pyrimidin-2-yl)-4-(trifluoromethyl)benzamide] |
| 11 | CS(=O)(=O)N1CCc2nc(-c3ccccc3)c(NC(=O)c3cc(-c4ncccn4)c(C(F)(F)F)cc3F)cc2C1 [Example 149, 2-fluoro-N-(6-(methylsulfonyl)-2-phenyl-5,6,7,8-tetrahydro-1,6-naphthyridin-3-yl)-5-(pyrimidin-2-yl)-4-(trifluoromethyl)benzamide] |
| 14 | CNC(=O)N1CCc2nc(-c3ccccc3)c(NC(=O)c3cc(-c4ncccn4)c(C(F)(F)F)cc3F)cc2C1 [Example 150, 3-(2-fluoro-5-(pyrimidin-2-yl)-4-(trifluoromethyl)benzamido)-N-methyl-2-phenyl-7,8-dihydro-1,6-naphthyridine-6(5H)-carboxamide] |
| 0.54 | CC(=O)N1CCc2nc(-c3ccccc3)c(NC(=O)c3cc(-c4ccn(C)n4)c(C(F)(F)F)cc3Cl)cc2C1 [Example 151, N-(6-acetyl-2-phenyl-5,6,7,8-tetrahydro-1,6-naphthyridin-3-yl)-2-chloro-5-(1-methyl-1H-pyrazol-3-yl)-4-(trifluoromethyl)benzamide] |
| 0.069 | Cn1ccc(-c2cc(C(=O)Nc3cc4c(nc3-c3ccccc3)CCNC4=O)c(F)cc2C(F)(F)F)n1 [Example 152, 2-fluoro-5-(1-methyl-1H-pyrazol-3-yl)-N-(5-oxo-2-phenyl-5,6,7,8-tetrahydro-1,6-naphthyridin-3-yl)-4-(trifluoromethyl)benzamide] |
| 6.8 | Cn1ccc(-c2cc(C(=O)Nc3cc4c(nc3-c3ccccc3)CC(=O)NC4)c(F)cc2C(F)(F)F)n1 [Example 153, 2-fluoro-5-(1-methyl-1H-pyrazol-3-yl)-N-(7-oxo-2-phenyl-5,6,7,8-tetrahydro-1,6-naphthyridin-3-yl)-4-(trifluoromethyl)benzamide] |
